Results as given in PubChem BioAssay AID1963958 (Molecular Pharmacology Branch, DTP, NCI, 2024).

Tested on: MDA-MB-231 multicell spheroids, viability
Assay: Anticancer human tumor MDA-MB-231 cell line growth inhibition [PI3K];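 also: spheroids exposed to agents for seven days before reading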;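 as to viability, T/C: percent of vehicle control luminescence with DMSO treated spheroids as 100%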
Settings: for IC50: curve of first compound; for viability, T/C: stronger effect = lower value
Procedure, shortened: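 Stroma-containing spheroids: tumor line, pooled-donor HUVEC, hMSC. Treatments: targeted agents with PI3K inhibitors. Dosing: clinically relevant, half-log spacing, 10 microM ceiling without known Cmax. Read-out: cell viability.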

[1] = second compound 0.00316 µM, first compound 0.0316 µM
[2] = second compound 0.00316 µM, first compound 0.1 µM
[3] = second compound 0.01 µM, first compound 0.0316 µM
[4] = second compound 0.01 µM, first compound 0.1 µM
[5] = second compound 0.0316 µM, first compound 0.0316 µM
[6] = second compound 0.0316 µM, first compound 0.1 µM
[7] = second compound 0.1 µM, first compound 0.0316 µM
[8] = second compound 0.1 µM, first compound 0.1 µM
[9] = second compound 0.316 µM, first compound 0.0316 µM
[10] = second compound 0.316 µM, first compound 0.1 µM
[11] = second compound 1 µM, first compound 0.0316 µM
[12] = second compound 1 µM, first compound 0.1 µM
[13] = second compound 0.00316 µM, first compound 0.316 µM
[14] = second compound 0.00316 µM, first compound 1 µM
[15] = second compound 0.00316 µM, first compound 3.16 µM
[16] = second compound 0.00316 µM, first compound 10 µM
[17] = second compound 0.01 µM, first compound 0.316 µM
[18] = second compound 0.01 µM, first compound 1 µM
[19] = second compound 0.01 µM, first compound 3.16 µM
[20] = second compound 0.01 µM, first compound 10 µM
[21] = second compound 0.0316 µM, first compound 0.316 µM
[22] = second compound 0.0316 µM, first compound 1 µM
[23] = second compound 0.0316 µM, first compound 3.16 µM
[24] = second compound 0.0316 µM, first compound 10 µM
[25] = second compound 0.1 µM, first compound 0.316 µM
[26] = second compound 0.1 µM, first compound 1 µM
[27] = second compound 0.1 µM, first compound 3.16 µM
[28] = second compound 0.1 µM, first compound 10 µM
[29] = second compound 0.316 µM, first compound 0.316 µM
[30] = second compound 0.316 µM, first compound 1 µM
[31] = second compound 0.316 µM, first compound 3.16 µM
[32] = second compound 0.316 µM, first compound 10 µM
[33] = second compound 1 µM, first compound 0.316 µM
[34] = second compound 1 µM, first compound 1 µM
[35] = second compound 1 µM, first compound 3.16 µM
[36] = second compound 1 µM, first compound 10 µM

## CC(=O)c1c(C)c2cnc(Nc3ccc(N4CCNCC4)cn3)nc2n(C2CCCC2)c1=O + COc1c(OCCCN2CCOCC2)ccc2c3n(c(=NC(=O)c4cnc(N)nc4)nc12)CCN3
Second compound 0.00316 µM
  IC50: 79.4 nM
Second compound 0.01 µM
  IC50: 37.3 nM
Second compound 0.0316 µM
  IC50: 10.4 nM
Second compound 0.1 µM
  IC50: < 0.316 nM
Second compound 0.316 µM
  IC50: < 0.316 nM
Second compound 1 µM
  IC50: < 0.316 nM
Second compound 0.00316 µM, first compound 0.000316 µM
  viability, T/C: 96.5%
Second compound 0.00316 µM, first compound 0.001 µM
  viability, T/C: 94.8%
Second compound 0.00316 µM, first compound 0.00316 µM
  viability, T/C: 90.4%
Second compound 0.00316 µM, first compound 0.01 µM
  viability, T/C: 85.2%
[1]
  viability, T/C: 69.5%
[2]
  viability, T/C: 45%
Second compound 0.01 µM, first compound 0.000316 µM
  viability, T/C: 80.6%
Second compound 0.01 µM, first compound 0.001 µM
  viability, T/C: 79.9%
Second compound 0.01 µM, first compound 0.00316 µM
  viability, T/C: 73.7%
Second compound 0.01 µM, first compound 0.01 µM
  viability, T/C: 62.5%
[3]
  viability, T/C: 53.6%
[4]
  viability, T/C: 35.9%
Second compound 0.0316 µM, first compound 0.000316 µM
  viability, T/C: 58.4%
Second compound 0.0316 µM, first compound 0.001 µM
  viability, T/C: 59.7%
Second compound 0.0316 µM, first compound 0.00316 µM
  viability, T/C: 54.2%
Second compound 0.0316 µM, first compound 0.01 µM
  viability, T/C: 50.5%
[5]
  viability, T/C: 41.3%
[6]
  viability, T/C: 26.7%
Second compound 0.1 µM, first compound 0.000316 µM
  viability, T/C: 46.9%
Second compound 0.1 µM, first compound 0.001 µM
  viability, T/C: 44.9%
Second compound 0.1 µM, first compound 0.00316 µM
  viability, T/C: 41.3%
Second compound 0.1 µM, first compound 0.01 µM
  viability, T/C: 39.2%
[7]
  viability, T/C: 33.1%
[8]
  viability, T/C: 21.1%
Second compound 0.316 µM, first compound 0.000316 µM
  viability, T/C: 33.4%
Second compound 0.316 µM, first compound 0.001 µM
  viability, T/C: 31%
Second compound 0.316 µM, first compound 0.00316 µM
  viability, T/C: 27.9%
Second compound 0.316 µM, first compound 0.01 µM
  viability, T/C: 27.3%
[9]
  viability, T/C: 20.4%
[10]
  viability, T/C: 16.4%
Second compound 1 µM, first compound 0.000316 µM
  viability, T/C: 25%
Second compound 1 µM, first compound 0.001 µM
  viability, T/C: 25%
Second compound 1 µM, first compound 0.00316 µM
  viability, T/C: 23.5%
Second compound 1 µM, first compound 0.01 µM
  viability, T/C: 24%
[11]
  viability, T/C: 21.6%
[12]
  viability, T/C: 19.6%

## CCCS(=O)(=O)Nc1ccc(F)c(C(=O)c2c[nH]c3ncc(-c4ccc(Cl)cc4)cc23)c1F + COc1c(OCCCN2CCOCC2)ccc2c3n(c(=NC(=O)c4cnc(N)nc4)nc12)CCN3
Second compound 0.00316 µM
  IC50: 5140 nM
Second compound 0.01 µM
  IC50: 3480 nM
Second compound 0.0316 µM
  IC50: 1650 nM
Second compound 0.1 µM
  IC50: < 31.6 nM
Second compound 0.316 µM
  IC50: < 31.6 nM
Second compound 1 µM
  IC50: < 31.6 nM
[1]
  viability, T/C: 104%
[2]
  viability, T/C: 103%
[13]
  viability, T/C: 96.6%
[14]
  viability, T/C: 76.5%
[15]
  viability, T/C: 63.1%
[16]
  viability, T/C: 34.8%
[3]
  viability, T/C: 74.4%
[4]
  viability, T/C: 91.3%
[17]
  viability, T/C: 80.4%
[18]
  viability, T/C: 67.6%
[19]
  viability, T/C: 53%
[20]
  viability, T/C: 32.3%
[5]
  viability, T/C: 65.1%
[6]
  viability, T/C: 64.7%
[21]
  viability, T/C: 62.7%
[22]
  viability, T/C: 57%
[23]
  viability, T/C: 41%
[24]
  viability, T/C: 25.3%
[7]
  viability, T/C: 48%
[8]
  viability, T/C: 49.8%
[25]
  viability, T/C: 50%
[26]
  viability, T/C: 44.5%
[27]
  viability, T/C: 34%
[28]
  viability, T/C: 20.9%
[9]
  viability, T/C: 34.8%
[10]
  viability, T/C: 35.1%
[29]
  viability, T/C: 34.4%
[30]
  viability, T/C: 30.7%
[31]
  viability, T/C: 24.4%
[32]
  viability, T/C: 15.7%
[11]
  viability, T/C: 28.2%
[12]
  viability, T/C: 28.3%
[33]
  viability, T/C: 26.7%
[34]
  viability, T/C: 24.9%
[35]
  viability, T/C: 20.3%
[36]
  viability, T/C: 13.2%

## CNC(=O)c1ccc(N2C(=S)N(c3ccc(C#N)c(C(F)(F)F)c3)C(=O)C2(C)C)cc1F + COc1c(OCCCN2CCOCC2)ccc2c3n(c(=NC(=O)c4cnc(N)nc4)nc12)CCN3
Second compound 0.00316 µM
  IC50: > 10000 nM
Second compound 0.01 µM
  IC50: > 10000 nM
Second compound 0.0316 µM
  IC50: > 10000 nM
Second compound 0.1 µM
  IC50: < 31.6 nM
Second compound 0.316 µM
  IC50: < 31.6 nM
Second compound 1 µM
  IC50: < 31.6 nM
[1]
  viability, T/C: 98.3%
[2]
  viability, T/C: 96.5%
[13]
  viability, T/C: 98.9%
[14]
  viability, T/C: 97.6%
[15]
  viability, T/C: 95.9%
[16]
  viability, T/C: 81.3%
[3]
  viability, T/C: 82.2%
[4]
  viability, T/C: 78.5%
[17]
  viability, T/C: 82.5%
[18]
  viability, T/C: 83.7%
[19]
  viability, T/C: 72.7%
[20]
  viability, T/C: 64.2%
[5]
  viability, T/C: 63%
[6]
  viability, T/C: 64.5%
[21]
  viability, T/C: 64.8%
[22]
  viability, T/C: 61.7%
[23]
  viability, T/C: 59%
[24]
  viability, T/C: 50.9%
[7]
  viability, T/C: 50.9%
[8]
  viability, T/C: 46.2%
[25]
  viability, T/C: 48.9%
[26]
  viability, T/C: 48.1%
[27]
  viability, T/C: 46.9%
[28]
  viability, T/C: 38.8%
[9]
  viability, T/C: 34.5%
[10]
  viability, T/C: 34.4%
[29]
  viability, T/C: 34.8%
[30]
  viability, T/C: 34.6%
[31]
  viability, T/C: 32.6%
[32]
  viability, T/C: 28.3%
[11]
  viability, T/C: 25.6%
[12]
  viability, T/C: 24.8%
[33]
  viability, T/C: 25%
[34]
  viability, T/C: 24.8%
[35]
  viability, T/C: 25.1%
[36]
  viability, T/C: 22.9%
